Assay results published in patent US20050239764A1, “Zinc pyrrolidonecarboxylate dihydrate and method of producing the same” (Ajinomoto Co., Inc., priority 2004, published 2005).

Details: dihydrate; for transmittance (T %) of 10 g/dl aqueous solution: 4 g dissolved in water to 40 ml, kept at 25° C. for one day, stirred 1 min, 550 nm, optical path 10 mm, 25° C.; for liquid of 10 g/dl aqueous solution: evaluation grade of dissolution state from transmittance at 550 nm, 10 mm path
Method: Apparatus: Spectrophotometer V-570 (JAS. CO)
Spectrophotometer (UV/VIS/NIR)
measure wavelength: 550 nm
band width (near infrared): 8.0 nm
repeating interval: 3 sec.
measure cell: quartz glass cell T-1-UV-10 manufactured by TOSOH Quartz Co.
(Optical path width: 10 mm, outside width; 12.5 mm, height; 45 mm)
measure temperature: 25° C.(R.T.)
1) Stabilization of value was performed, thereby starting setting until 2 hours before measuring.
2) Determination of measuring program: Fixed Wavelength program was selected, and then initialization of wavelength was performed.
3) Injecting ion exchange water (about 3 ml) into each of blank cell and sample cell, setting on photometer, correcting zero point, and then determining a blank (Completion of measuring preparation).
RIKEN KOGYO INC., Magmix Stirrer) at 3 of speed range, and then the solution (3 ml) was injected into measuring cell immediately.
5) The cell was equipped photometer immediately after confirming absence of bubble in the cell.
6) After setting, the cell was stood for 1 min, and then subjected to measurement.
7) The transmittance (% T) is the value measured with photometer.
Under the above conditions, the transmittance was obtained accurately although measuring sample comprised insoluble material, because insoluble material was dispersed uniformly in the whole cell.

transmittance (T %) of 10 g/dl aqueous solution | liquid of 10 g/dl aqueous solution | Substance
17.5% | – | zinc pyrrolidonecarboxylate dihydrate [Com. Ex. 1, reference compound]
30.6% | – | zinc pyrrolidonecarboxylate dihydrate [Com. Ex. 2, reference compound]
60.3% | – | zinc pyrrolidonecarboxylate dihydrate [Com. Ex. 3, reference compound]
19.9% | – | zinc pyrrolidonecarboxylate dihydrate [Com. Ex. 4, reference compound]
96.6% | ◯ | zinc pyrrolidonecarboxylate dihydrate [Ex. 1]
97.6% | ⊚ | zinc pyrrolidonecarboxylate dihydrate [Ex. 2]
96.9% | ◯ | zinc pyrrolidonecarboxylate dihydrate [Ex. 3]
97.6% | ⊚ | zinc pyrrolidonecarboxylate dihydrate [Ex. 4]
97.9% | ⊚ | zinc pyrrolidonecarboxylate dihydrate [Ex. 5]
86.1% | Δ (Δ: 93-85%) | zinc pyrrolidonecarboxylate dihydrate [Ex. 6]

Substance | transmittance (T %) of 10 g/dl aqueous solution | liquid of 10 g/dl aqueous solution
zinc pyrrolidonecarboxylate dihydrate [Ex. 7] | 95.7% | –
